Data as given in ChEMBL document CHEMBL1201862, “PubChem BioAssay data set” (2004).
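Values below derive from 48-hour exposures of cells grown in 96-well plates, with endpoints linearly interpolated between the two concentrations bracketing the appropriate inhibition level. GI50 marks 50% less growth.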 Calls of active or inactive are those of the source. Rule as the data show it: active = GI50 up to about 1.1 µM and inactive = higher.

Tests used:
Assay in all cases: NCI anticancer screen, dose series, 48 h
MDA-N = tested on: MDA-N
OVCAR-4 = tested on: OVCAR-4
NCI-H522 = tested on: NCI-H522
KM12 = tested on: KM12
U-251 = tested on: U-251
HOP-62 = tested on: HOP-62
OVCAR-3 = tested on: OVCAR-3
HCT-116 = tested on: HCT-116
NCI-H460 = tested on: NCI-H460
SNB-75 = tested on: SNB-75
SR = tested on: SR
Hs-578T = tested on: Hs-578T
K562 = tested on: K562
SN12C = tested on: SN12C
SK-MEL-28 = tested on: SK-MEL-28
RXF 393 = tested on: RXF 393
BT-549 = tested on: BT-549
T47D = tested on: T47D
MOLT-4 = tested on: MOLT-4
MCF7 = tested on: MCF7
SF-539 = tested on: SF-539
SF-268 = tested on: SF-268
MDA-MB-435 = tested on: MDA-MB-435
SK-MEL-2 = tested on: SK-MEL-2
CCRF-CEM = tested on: CCRF-CEM
PC-3 = tested on: PC-3
UACC-62 = tested on: UACC-62
CAKI-1 = tested on: CAKI-1
EKVX = tested on: EKVX
NCI-H23 = tested on: NCI-H23
HCC 2998 = tested on: HCC 2998
786-0 = tested on: 786-0
TK-10 = tested on: TK-10
SW-620 = tested on: SW-620
HOP-92 = tested on: HOP-92
MDA-MB-231 = tested on: MDA-MB-231
COLO 205 = tested on: COLO 205
UACC-257 = tested on: UACC-257
DLD-1 = tested on: DLD-1
DU-145 = tested on: DU-145
LXFL 529 = tested on: LXFL 529
OVCAR-5 = tested on: OVCAR-5
NCI-H226 = tested on: NCI-H226
OVCAR-8 = tested on: OVCAR-8
M14 = tested on: M14
SNB-19 = tested on: SNB-19
HT-29 = tested on: HT-29
A549 = tested on: A549
IGROV-1 = tested on: IGROV-1
Malme-3M = tested on: Malme-3M
DMS-273 = tested on: DMS-273
UO-31 = tested on: UO-31
ACHN = tested on: ACHN
KM-20L2 = tested on: KM-20L2
NCI/ADR-RES = tested on: NCI/ADR-RES
RPMI-8226 = tested on: RPMI-8226
SK-OV-3 = tested on: SK-OV-3
M19-MEL = tested on: M19-MEL
SK-MEL-5 = tested on: SK-MEL-5
LOX IMVI = tested on: LOX IMVI
SF-295 = tested on: SF-295
DMS-114 = tested on: DMS-114
A498 = tested on: A498
HL-60 = tested on: HL-60
HCT-15 = tested on: HCT-15
SNB-78 = tested on: SNB-78

For N=C(N)NCCCC(NCc1c2ccccc2nc2ccccc12)C(=O)O (configuration not stated), the GI50 (MDA-N) was 37.2 µM (inactive), the GI50 (OVCAR-4) was 29.2 µM (inactive) and the GI50 (NCI-H522) was 22.9 µM (inactive). The GI50 (KM12) was 21.6 µM (inactive), the GI50 (U-251) was 47.2 µM (inactive) and the GI50 (HOP-62) was 37.1 µM (inactive). For the same compound, the GI50 (OVCAR-3) was 40.9 µM (inactive), the GI50 (HCT-116) was 11.4 µM (inactive) and the GI50 (NCI-H460) was 36.1 µM (inactive). The GI50 (SNB-75) was 45.2 µM (inactive), the GI50 (SR) was 14.3 µM (inactive) and the GI50 (Hs-578T) was 69.7 µM (inactive). The GI50 (K562) was 10.1 µM (inactive), the GI50 (SN12C) was 39.2 µM (inactive) and the GI50 (SK-MEL-28) was > 66.7 µM (inactive). For the same compound, the GI50 (RXF 393) was 57 µM (inactive), the GI50 (BT-549) was 30.9 µM (inactive) and the GI50 (T47D) was 36.2 µM (inactive). For the same compound, the GI50 (MOLT-4) was 8 µM (inactive), the GI50 (MCF7) was 32 µM (inactive) and the GI50 (SF-539) was 33 µM (inactive). The GI50 (SF-268) was 47.6 µM (inactive), the GI50 (MDA-MB-435) was 41.8 µM (inactive) and the GI50 (SK-MEL-2) was 41 µM (inactive). The GI50 (CCRF-CEM) was 9.55 µM (inactive), the GI50 (PC-3) was 35.2 µM (inactive) and the GI50 (UACC-62) was 31.3 µM (inactive). The GI50 (CAKI-1) was 26.6 µM (inactive), the GI50 (EKVX) was 33.1 µM (inactive) and the GI50 (NCI-H23) was 53.1 µM (inactive). For the same compound, the GI50 (HCC 2998) was 33.5 µM (inactive), the GI50 (786-0) was 31.3 µM (inactive) and the GI50 (TK-10) was 49.5 µM (inactive). For the same compound, the GI50 (SW-620) was 25.5 µM (inactive), the GI50 (HOP-92) was 7.93 µM (inactive) and the GI50 (MDA-MB-231) was 23.8 µM (inactive). For the same compound, the GI50 (COLO 205) was 37.9 µM (inactive), the GI50 (UACC-257) was 33.7 µM (inactive) and the GI50 (DLD-1) was 17.3 µM (inactive). For the same compound, the GI50 (DU-145) was > 100 µM (inactive), the GI50 (LXFL 529) was 38.5 µM (inactive) and the GI50 (OVCAR-5) was > 100 µM (inactive). For the same compound, the GI50 (NCI-H226) was > 81.8 µM (inactive), the GI50 (OVCAR-8) was 25.7 µM (inactive) and the GI50 (M14) was 48.1 µM (inactive). The GI50 (SNB-19) was 48.4 µM (inactive), the GI50 (HT-29) was 18.9 µM (inactive) and the GI50 (A549) was 37.2 µM (inactive). The GI50 (IGROV-1) was 34.7 µM (inactive), the GI50 (Malme-3M) was > 73.1 µM (inactive) and the GI50 (DMS-273) was 31.3 µM (inactive). For the same compound, the GI50 (UO-31) was 23.6 µM (inactive), the GI50 (ACHN) was 31.5 µM (inactive) and the GI50 (KM-20L2) was 29.4 µM (inactive). For the same compound, the GI50 (NCI/ADR-RES) was 28.5 µM (inactive), the GI50 (RPMI-8226) was 10.4 µM (inactive) and the GI50 (SK-OV-3) was 53.1 µM (inactive). For the same compound, the GI50 (M19-MEL) was 58.7 µM (inactive), the GI50 (SK-MEL-5) was > 41.8 µM (inactive) and the GI50 (LOX IMVI) was 26.2 µM (inactive). For the same compound, the GI50 (SF-295) was 48 µM (inactive), the GI50 (DMS-114) was 23.3 µM (inactive) and the GI50 (A498) was > 100 µM (inactive). For the same compound, the GI50 (HL-60) was 11 µM (inactive) and the GI50 (HCT-15) was 29.4 µM.
With CCCNC1CC(n2cc(C)c(=O)[nH]c2=O)OC1CO (configuration not stated) the GI50 (OVCAR-4) was > 100 µM (inactive), the GI50 (NCI-H522) was > 100 µM (inactive) and the GI50 (SNB-78) was > 100 µM (inactive). For the same compound, the GI50 (HOP-62) was > 100 µM (inactive), the GI50 (HCT-116) was > 100 µM (inactive) and the GI50 (NCI-H460) was > 100 µM (inactive). The GI50 (SNB-75) was > 100 µM (inactive), the GI50 (SR) was > 100 µM (inactive) and the GI50 (K562) was > 100 µM (inactive). For the same compound, the GI50 (SN12C) was > 100 µM (inactive), the GI50 (SK-MEL-28) was > 100 µM (inactive) and the GI50 (MOLT-4) was > 100 µM (inactive). For the same compound, the GI50 (SF-539) was > 100 µM (inactive), the GI50 (SF-268) was > 100 µM (inactive) and the GI50 (SK-MEL-2) was > 100 µM (inactive). The GI50 (CCRF-CEM) was > 100 µM (inactive), the GI50 (UACC-62) was > 100 µM (inactive) and the GI50 (CAKI-1) was > 100 µM (inactive). For the same compound, the GI50 (NCI-H23) was > 100 µM (inactive), the GI50 (HCC 2998) was > 100 µM (inactive) and the GI50 (786-0) was > 100 µM (inactive). The GI50 (HOP-92) was > 100 µM (inactive), the GI50 (COLO 205) was > 100 µM (inactive) and the GI50 (DLD-1) was > 100 µM (inactive). The GI50 (LXFL 529) was > 100 µM (inactive), the GI50 (NCI-H226) was > 100 µM (inactive) and the GI50 (M14) was > 100 µM (inactive). The GI50 (IGROV-1) was > 100 µM (inactive), the GI50 (Malme-3M) was > 100 µM (inactive) and the GI50 (DMS-273) was > 100 µM (inactive). The GI50 (UO-31) was > 100 µM (inactive), the GI50 (ACHN) was > 100 µM (inactive) and the GI50 (RPMI-8226) was > 100 µM (inactive). The GI50 (SK-OV-3) was > 100 µM (inactive), the GI50 (M19-MEL) was > 100 µM (inactive) and the GI50 (DMS-114) was > 100 µM (inactive). The GI50 (HL-60) was > 100 µM (inactive).
In the case of C1CC[N+]23CCCC[N+]2(C1)CCCC3 (configuration not stated), the GI50 (OVCAR-4) is reported as > 100 µM (inactive), the GI50 (NCI-H522) is reported as > 100 µM (inactive) and the GI50 (U-251) is reported as > 100 µM (inactive). For the same compound, the GI50 (SNB-78) was > 100 µM (inactive), the GI50 (HOP-62) was > 100 µM (inactive) and the GI50 (OVCAR-3) was > 100 µM (inactive). The GI50 (HCT-116) was > 100 µM (inactive), the GI50 (NCI-H460) was > 100 µM (inactive) and the GI50 (SNB-75) was > 100 µM (inactive). For the same compound, the GI50 (SR) was > 100 µM (inactive), the GI50 (K562) was > 100 µM (inactive) and the GI50 (SN12C) was > 100 µM (inactive). For the same compound, the GI50 (SK-MEL-28) was > 100 µM (inactive), the GI50 (MOLT-4) was > 100 µM (inactive) and the GI50 (SF-268) was > 100 µM (inactive). The GI50 (SK-MEL-2) was > 100 µM (inactive), the GI50 (CCRF-CEM) was > 100 µM (inactive) and the GI50 (UACC-62) was > 100 µM (inactive). For the same compound, the GI50 (CAKI-1) was > 100 µM (inactive), the GI50 (EKVX) was > 100 µM (inactive) and the GI50 (NCI-H23) was > 100 µM (inactive). The GI50 (HCC 2998) was > 100 µM (inactive), the GI50 (786-0) was > 100 µM (inactive) and the GI50 (TK-10) was > 100 µM (inactive). The GI50 (SW-620) was > 100 µM (inactive), the GI50 (COLO 205) was > 100 µM (inactive) and the GI50 (UACC-257) was > 100 µM (inactive). For the same compound, the GI50 (DLD-1) was > 100 µM (inactive), the GI50 (LXFL 529) was > 100 µM (inactive) and the GI50 (OVCAR-5) was > 100 µM (inactive). For the same compound, the GI50 (NCI-H226) was > 100 µM (inactive), the GI50 (OVCAR-8) was > 100 µM (inactive) and the GI50 (M14) was > 100 µM (inactive). The GI50 (SNB-19) was > 100 µM (inactive), the GI50 (HT-29) was > 100 µM (inactive) and the GI50 (A549) was > 100 µM (inactive). For the same compound, the GI50 (IGROV-1) was > 100 µM (inactive), the GI50 (Malme-3M) was > 100 µM (inactive) and the GI50 (UO-31) was > 100 µM (inactive). For the same compound, the GI50 (ACHN) was > 100 µM (inactive), the GI50 (KM-20L2) was > 100 µM (inactive) and the GI50 (RPMI-8226) was > 100 µM (inactive). For the same compound, the GI50 (SK-OV-3) was > 100 µM (inactive), the GI50 (M19-MEL) was > 100 µM (inactive) and the GI50 (SK-MEL-5) was > 100 µM (inactive). The GI50 (SF-295) was > 100 µM (inactive), the GI50 (DMS-114) was 56.2 µM (inactive) and the GI50 (A498) was > 100 µM (inactive). The GI50 (HL-60) was > 100 µM (inactive) and the GI50 (HCT-15) was over 100 µM.
